According to ChEMBL document CHEMBL6083247, “Discovery of sulfone containing metallo-β-lactamase inhibitors with reduced bacterial cell efflux and histamine release issues” (Bioorg Med Chem Lett, 2024):

Experiments:
Klebsiella pneumoniae = test: Antibacterial activity against VIM-1 expressing Klebsiella pneumoniae IHMA599644 assessed as inhibition of bacterial growth in presence of IMI by absorbance based assay; type: functional
[1] = Inhibition of Metallo-beta-lactamase IMP-1 (unknown origin); parameters: species or system Bacteria
[2] = molecular target: Metallo-beta-lactamase type 2 (Bacteria, UniProt C7C422); test: Inhibition of Metallo-beta-lactamase NDM-1 (unknown origin)
Sequence of Metallo-beta-lactamase type 2 (C7C422 whole entry): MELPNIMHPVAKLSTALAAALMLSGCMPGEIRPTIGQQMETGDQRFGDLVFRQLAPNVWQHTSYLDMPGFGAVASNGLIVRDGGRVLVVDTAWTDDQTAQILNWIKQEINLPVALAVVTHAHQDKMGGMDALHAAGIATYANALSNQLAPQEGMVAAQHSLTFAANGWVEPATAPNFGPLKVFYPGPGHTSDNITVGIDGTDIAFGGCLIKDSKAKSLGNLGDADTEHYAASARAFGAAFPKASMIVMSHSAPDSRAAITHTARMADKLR

[3] = Inhibition of Metallo-beta-lactamase VIM-1 (unknown origin); parameters: species or system Bacteria
Escherichia coli = test: Antibacterial activity against NDM-1 expressing Escherichia coli CLB30016 assessed as inhibition of bacterial growth in presence of IMI by absorbance based assay; type: functional
Serratia marcescens = test: Antibacterial activity against IMP-1 expressing Serratia marcescens CL5741 assessed as inhibition of bacterial growth in presence of IMI by absorbance based assay; type: functional
[4] = Inhibition of Metallo-beta-lactamase VIM-2 (unknown origin); parameters: species or system Bacteria
[5] = Toxicity in rat assessed as emesis at 1 mg/kg, iv; type: organism-based; conditions: in vivo
[6] = Toxicity in dog assessed as emesis at 1 mg/kg; type: organism-based, Canis lupus familiaris; conditions: in vivo
[7] = Toxicity in rat mast cells assessed as degranulation by measuring histamine release at >=300 microM; type: cell-based; conditions: mast cell
[8] = Toxicity in rat assessed as anaphylaxis at 1 mg/kg, iv; type: organism-based; conditions: in vivo
[9] = Efflux ratio of MITC95 for antibacterial activity against wildtype isogenic efflux/IMP-1 expressing Pseudomonas aeruginosa MB9798 assessed as inhibition of bacterial growth in presence of IMI to MITC95 for antibacterial activity against mutant isogenic efflux/IMP-1 expressing Pseudomonas aeruginosa MB9799 assessed as inhibition of bacterial growth in presence of IMI; type: functional
[10] = Toxicity in cardiovascular rat model assessed as increase in histamine release in plasma at 30 mg/kg, iv; type: organism-based; conditions: in vivo
[11] = Toxicity in cardiovascular rat model assessed as decrease in blood pressure at 3 mg/kg,iv for 20 mins followed by 10 mg/kg, iv dose for next 20 mins and measured after 20 mins of iv dose with 30 mg/kg; type: organism-based; conditions: in vivo, 1 h, time 60 min
[12] = Cmax in rat at 30 mg/kg, iv; type: ADME, organism-based; conditions: in vivo
[13] = Toxicity in dog assessed as anaphylaxis at 1 mg/kg; type: organism-based, Canis lupus familiaris; conditions: in vivo
[14] = Toxicity in cardiovascular rat model assessed as increase in histamine release in plasma at 3 mg/kg,iv for 20 mins followed by 10 mg/kg, iv dose for next 20 mins and measured after 20 mins of iv dose with 30 mg/kg; type: organism-based; conditions: in vivo, 1 h, time 60 min
[15] = Toxicity in rat assessed as watery eyes at 1 mg/kg, iv; type: organism-based; conditions: in vivo
Pseudomonas aeruginosa [16] = test: Antibacterial activity against mutant isogenic efflux/IMP-1 expressing Pseudomonas aeruginosa MB9799 assessed as inhibition of bacterial growth in presence of IMI by absorbance based assay; type: functional
[17] = Toxicity in dog assessed as watery eyes at 1 mg/kg; type: organism-based, Canis lupus familiaris; conditions: in vivo
Pseudomonas aeruginosa [18] = test: Antibacterial activity against wildtype isogenic efflux/IMP-1 expressing Pseudomonas aeruginosa MB9798 assessed as inhibition of bacterial growth in presence of IMI by absorbance based assay; type: functional
[19] = Cmax in rat at 5 mg/kg, iv; type: ADME, organism-based; conditions: in vivo
[20] = Toxicity in rat mast cells assessed as degranulation by measuring histamine release at >=33 microM; type: cell-based; conditions: mast cell
[21] = Toxicity in cardiovascular rat model assessed as increase in histamine release in plasma at 5 mg/kg, iv measured after >8 mins; type: organism-based; conditions: in vivo
[22] = MRT in rat at 1 mg/kg, iv; type: ADME, organism-based; conditions: in vivo
[23] = Clearance in rat at 1 mg/kg, iv; type: ADME, organism-based; conditions: in vivo
[24] = Unbound fraction in rat plasma at 1 mg/kg, iv; type: ADME, organism-based
[25] = AUC in rat at 1 mg/kg, iv; type: ADME, organism-based; conditions: in vivo
[26] = Volume of distribution at steady state in rat at 1 mg/kg, iv; type: ADME, organism-based; conditions: in vivo, read-out: Vdss
[27] = Cmax in rat at 1 mg/kg, iv; type: ADME, organism-based; conditions: in vivo
[28] = AUC in rat at 4 mg/kg, iv; type: ADME, organism-based; conditions: in vivo
[29] = Toxicity in rat assessed as adverse effect at 4 mg/kg, iv; type: organism-based; conditions: in vivo
[30] = Toxicity in cardiovascular rat model assessed as increase in histamine release in plasma at 4 mg/kg, iv; type: organism-based; conditions: in vivo
[31] = Cmax in rat at 4 mg/kg, iv; type: ADME, organism-based; conditions: in vivo
[32] = Volume of distribution at steady state in rat at 4 mg/kg, iv; type: ADME, organism-based; conditions: in vivo, read-out: Vdss
[33] = MRT in rat at 4 mg/kg, iv; type: ADME, organism-based; conditions: in vivo
[34] = Toxicity in rat mast cells assessed as degranulation by measuring histamine release at >=100 microM; type: cell-based; conditions: mast cell
[35] = Unbound fraction in rat plasma at 4 mg/kg, iv; type: ADME, organism-based
[36] = Clearance in rat at 4 mg/kg, iv; type: ADME, organism-based; conditions: in vivo

SMILES | MITC95 (Klebsiella pneumoniae) [µM] | IC50 [1] [nM] | IC50 [2] [nM] | IC50 [3] [nM] | MITC95 (Escherichia coli) [µM] | MITC95 (Serratia marcescens) [µM] | IC50 [4] [nM] | Ratio [9] | MITC95 (Pseudomonas aeruginosa [16]) [µM] | MITC95 (Pseudomonas aeruginosa [18]) [µM] | also measured
Cc1ccc(-c2cccc(S(N)(=O)=O)c2-c2nnn[nH]2)cc1 | 127 | 64 | 3.7 | 57 | 1.5 | 14 | – | – | – | – | –
NS(=O)(=O)c1c(CC2CCNCC2)ccc(-c2ccc(C3CCNCC3)cc2)c1-c1nn[nH]n1 | 2.3 | 24 | 11 | 5 | 2 | 3.9 | 1230 | 6 | 0.8 | 4.4 | Activity [5]: Toxic; Activity [6]: Toxic; Activity [7]: Toxic; Activity [8]: Toxic; Activity [10]: Toxic; Activity [11]: Toxic; Cmax [12]: 459 µM; Activity [13]: Toxic; Activity [14]: Toxic; Activity [15]: Toxic; Activity [17]: Toxic
NS(=O)(=O)c1c(CC2CNC2)ccc(-c2ccc(C3CCNCC3)cc2)c1-c1nn[nH]n1 | – | – | – | – | – | – | – | – | – | – | Cmax [19]: 45 µM; Activity [20]: Toxic; Activity [21]: Toxic
NS(=O)(=O)c1cccc(-c2ccc(C3CCNCC3)cc2)c1-c1nn[nH]n1 | 38 | 34 | – | 19 | 3 | 9 | – | 128 | 1.56 | 200 | –
NS(=O)(=O)c1c(C(F)(F)F)ccc(-c2ccc(C3CCNCC3)cc2)c1-c1nn[nH]n1 | 1.9 | 1.2 | 0.9 | 0.3 | 0.7 | 0.2 | – | 64 | 0.78 | 50 | –
NCCS(=O)(=O)c1ccc(-c2ccc(C3CCNCC3)cc2)c(-c2nn[nH]n2)c1S(N)(=O)=O | 3.13 | 0.17 | – | 0.2 | 1.56 | 1.56 | – | 2 | 0.78 | – | –
NS(=O)(=O)c1c(SC2CCNCC2)ccc(-c2ccc(C3CCNCC3)cc2)c1-c1nnn[nH]1 | 6.25 | 35.7 | – | 48.5 | 1.56 | 3.13 | – | 32 | 0.78 | 25 | –
Cc1ccc(-c2ccc(S(=O)(=O)C3CNC3)c(S(N)(=O)=O)c2-c2nn[nH]n2)c2nc(N)[nH]c12 | 1.56 | 0.47 | 0.04 | 0.24 | 1.56 | 0.78 | – | 1 | 0.78 | 0.78 | –
NS(=O)(=O)c1c([S+]([O-])C2CCNCC2)ccc(-c2ccc(C3CCNCC3)cc2)c1-c1nnn[nH]1 (configuration not stated) | 6.25 | 5.9 | – | 1.18 | 3.13 | 6.25 | 1090 | 2 | 1.56 | 3.1 | –
NS(=O)(=O)c1c(S(=O)(=O)C2CCNCC2)ccc(-c2ccc(C3CCNCC3)cc2)c1-c1nnn[nH]1 | 3.13 | 0.52 | – | 0.31 | 1.56 | 3.13 | 4.1 | 1 | 0.78 | 0.78 | MRT [22]: 46.8 min; clearance [23]: 3.8 mL/min/kg; fraction unbound [24]: 0.66; AUC [25]: 8.4 µM·h; Vd [26]: 0.18 L/kg; Cmax [27]: 15.8 µM
CS(=O)(=O)c1ccc(-c2ccc(C3CCNCC3)cc2)c(-c2nnn[nH]2)c1S(N)(=O)=O | 3.13 | 0.1 | – | 0.13 | 3.13 | 3.13 | 2.6 | 8 | 0.78 | 6.25 | –
NS(=O)(=O)c1c(S(=O)(=O)C2CNC2)ccc(-c2ccc(C3CCNCC3)cc2)c1-c1nn[nH]n1 | 1.56 | 0.21 | – | 0.2 | 0.78 | 1.56 | 2.8 | 1 | 0.78 | 0.78 | AUC [28]: 15.6 µM·h; Activity [29]: Non-toxic; Activity [30]: Non-toxic; Cmax [31]: 35.7 µM; Vd [32]: 0.34 L/kg; MRT [33]: 40.2 min; Activity [34]: Toxic; fraction unbound [35]: 0.55; clearance [36]: 8.5 mL/min/kg
Nc1nc2c(-c3ccc(S(=O)(=O)C4CCNCC4)c(S(N)(=O)=O)c3-c3nn[nH]n3)cccc2s1 | 6.25 | 0.46 | 0.12 | 0.26 | 3.13 | 3.13 | 0.4 | 1 | 1.56 | 1.56 | –
